This note sets out measurements from patent publication US20190367516A1 (Bayer Pharma Aktiengesellschaft, priority 2015, published 2019).

The target of this assay is T1, human M2 receptor (Homo sapiens, UniProt P08172).
T1 sequence (P08172 1-466): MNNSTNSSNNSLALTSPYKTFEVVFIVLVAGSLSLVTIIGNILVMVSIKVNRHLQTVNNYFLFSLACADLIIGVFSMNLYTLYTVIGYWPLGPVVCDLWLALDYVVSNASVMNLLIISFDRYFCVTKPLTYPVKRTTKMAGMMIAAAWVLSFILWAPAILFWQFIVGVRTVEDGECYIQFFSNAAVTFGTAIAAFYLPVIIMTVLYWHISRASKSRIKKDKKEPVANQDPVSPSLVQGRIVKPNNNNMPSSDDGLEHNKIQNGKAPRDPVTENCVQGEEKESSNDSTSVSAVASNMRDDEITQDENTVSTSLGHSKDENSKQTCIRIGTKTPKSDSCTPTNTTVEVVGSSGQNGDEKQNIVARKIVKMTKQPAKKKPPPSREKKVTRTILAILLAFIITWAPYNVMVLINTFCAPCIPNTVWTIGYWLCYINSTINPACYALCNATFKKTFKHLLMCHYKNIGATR
Particulars: for EC50: Receptor activity EC50, allosteric potency at EC20 acetylcholine, in some cases mean of two or more determinations.

The mark [1] stands for this setting: read-out: Efficiency, boosting of the acetylcholine effect at EC20 acetylcholine concentration, M2-GIRK1/4 reporter cells.

Where two headings read alike, the source gives them in different places.

What is called EC50 is the midpoint of the concentration-response curve. A higher EC50 goes with lower potency in that assay. Where the note is “M2-GIRK1/4 reporter cells”, `O=C(N[C@@H](C1CC1)C(F)(F)F)c1cn(-c2c(F)cccc2F)c2nc(N3CCNC3=O)ccc2c1=O` [Example 644, N-[(1 S)-1-Cyclopropyl-2,2,2-trifluoroethyl]-1-(2,6-difluorophenyl)-4-oxo-7-(2-oxoimidazolidin-1-yl)-1,4-dihydro-1,8-naphthyridine-3-carboxamide] showed a 50% effective concentration (EC50) of 74 nM. Also, the Emax under setting [1] amounted to 85%.
In turn, `CC[C@@H](NC(=O)c1cn(-c2c(Cl)cccc2Cl)c2nc(N3C[C@@H](O)CC3=O)ccc2c1=O)C(F)(F)F` [Example 645, 1-(2,6-Dichlorophenyl)-7-[(4S)-4-hydroxy-2-oxopyrrolidin-1-yl]-4-oxo-N-[(2R)-1,1,1-trifluorobutan-2-yl]-1,4-dihydro-1,8-naphthyridine-3-carboxamide] had an EC50 (M2-GIRK1/4 reporter cells) of 74 nM. Also, for the setting “read-out: Efficiency”, the Emax came out at 83%.
As for `O=C(N[C@H](C1CC1)C(F)(F)F)c1cn(-c2c(Cl)cc(F)cc2Cl)c2nc(N3CCNC3=O)ccc2c1=O` [Example 647, N-[(1R)-1-Cyclopropyl-2,2,2-trifluoroethyl]-1-(2,6-dichloro-4-fluorophenyl)-4-oxo-7-(2-oxoimidazolidin-1-yl)-1,4-dihydro-1,8-naphthyridine-3-carboxamide], the Emax under setting [1] was 92%.
On to `CC[C@@H](NC(=O)c1cn(-c2c(Cl)cc(F)cc2Cl)c2nc(N3CCNC3=O)ccc2c1=O)C(F)(F)F` [Example 649, 1-(2,6-Dichloro-4-fluorophenyl)-4-oxo-7-(2-oxoimidazolidin-1-yl)-N-[(2R)-1,1,1-trifluorobutan-2-yl]-1,4-dihydro-1,8-naphthyridine-3-carboxamide], for which the EC50 (M2-GIRK1/4 reporter cells) worked out at 83 nM. For the same compound, the Emax under setting [1] is 94%.
As for `NC(=O)N1CCN(c2ccc3c(=O)c(C(=O)N[C@H](C4CC4)C(F)(F)F)cn(-c4c(F)cc(F)cc4F)c3n2)CC1` [Example 650, 7-(4-Carbamoylpiperazin-1-yl)-N-[(1R)-1-cyclopropyl-2,2,2-trifluoroethyl]-4-oxo-1-(2,4,6-trifluorophenyl)-1,4-dihydro-1,8-naphthyridine-3-carboxamide], the half-maximal effective concentration (EC50) (M2-GIRK1/4 reporter cells) amounted to 83 nM. Also, the Emax under setting [1] was 100%.
For the setting “M2-GIRK1/4 reporter cells”, `O=C(Nc1c(Cl)cccc1Cl)c1cn(-c2ccc(F)cc2F)c2nc(N3C[C@@H](O)[C@@H](O)C3)ccc2c1=O` [Example 651, N-(2,6-Dichlorophenyl)-1-(2,4-difluorophenyl)-7-[(3R,4S)-3,4-dihydroxypyrrolidin-1-yl]-4-oxo-1,4-dihydro-1,8-naphthyridine-3-carboxamide] yielded an EC50 of 86 nM. Besides, the Emax under setting [1] came to 95%.
On the same counts, the results for `CC[C@@H](NC(=O)c1cn(-c2c(Cl)cccc2Cl)c2nc(N3CC4CC4(O)C3)ccc2c1=O)C(F)(F)F` (stereo partly drawn) [Example 652, 1-(2,6-Dichlorophenyl)-7-[1-hydroxy-3-azabicyclo[3.1.0]hex-3-yl]-4-oxo-N-[(2R)-1,1,1-trifluorobutan-2-yl]-1,4-dihydro-1,8-naphthyridine-3-carboxamide] are 89 nM and 80%.
In turn, `O=C(NC12CC(C1)C2)c1cn(-c2c(F)cc(F)cc2F)c2nc(N3CCNC3=O)ccc2c1=O` [Example 653, N-(Bicyclo[1.1.1]pent-1-yl)-4-oxo-7-(2-oxoimidazolidin-1-yl)-1-(2,4,6-trifluorophenyl)-1,4-dihydro-1,8-naphthyridine-3-carboxamide] registered a concentration for a half-maximal effect (EC50) (M2-GIRK1/4 reporter cells) of 89 nM. In addition, the Emax under setting [1] came to 86.5%.
Compound `CC[C@H](NC(=O)c1cn(-c2c(Cl)cc(F)cc2Cl)c2nc(N3CCNC3=O)ccc2c1=O)C(F)(F)F` [Example 654, 1-(2,6-Dichloro-4-fluorophenyl)-4-oxo-7-(2-oxoimidazolidin-1-yl)-N-[(2S)-1,1,1-trifluorobutan-2-yl]-1,4-dihydro-1,8-naphthyridine-3-carboxamide] registered an EC50 (M2-GIRK1/4 reporter cells) of 93 nM. For the same compound, the Emax under setting [1] was 84%.
`CC1(NC(=O)c2cn(-c3c(F)cc(F)cc3F)c3nc(N4C[C@@H](O)[C@H](O)C4)ccc3c2=O)CC(F)(F)C1` [Example 655, N-(3,3-Difluoro-1-methylcyclobutyl)-7-[(3R,4R)-3,4-dihydroxypyrrolidin-1-yl]-4-oxo-1-(2,4,6-trifluorophenyl)-1,4-dihydro-1,8-naphthyridine-3-carboxamide] returned an EC50 (M2-GIRK1/4 reporter cells) of 97 nM. Moreover, under setting [1], the Emax was determined as 98%.
On the same counts, the results for `CC1(NC(=O)c2cn(-c3c(F)cc(F)cc3F)c3nc(N4CCNC4=O)ccc3c2=O)CC(F)(F)C1` [Example 656, N-(3,3-Difluoro-1-methylcyclobutyl)-4-oxo-7-(2-oxoimidazolidin-1-yl)-1-(2,4,6-trifluorophenyl)-1,4-dihydro-1,8-naphthyridine-3-carboxamide] are 100 nM and 91.5%.
On the same counts, the results for `CC[C@@H](NC(=O)c1cn(-c2ccc(F)cc2F)c2nc(N3C(=O)C(C)(C)C(O)C3C)ccc2c1=O)C(F)(F)F` (stereo partly drawn) [Example 657, 1-(2,4-Difluorophenyl)-7-[4-hydroxy-3,3,5-trimethyl-2-oxopyrrolidin-1-yl]-4-oxo-N-[(2R)-1,1,1-trifluorobutan-2-yl]-1,4-dihydro-1,8-naphthyridine-3-carboxamide] are 100 nM and 85.3%.
As to `CC(C)C[C@@H](NC(=O)c1cn(-c2c(F)cc(F)cc2F)c2nc(N3C[C@@H](O)CC3=O)ccc2c1=O)C(F)(F)F` [Example 658, 7-[(4S)-4-Hydroxy-2-oxopyrrolidin-1-yl]-4-oxo-N-[(2R)-1,1,1-trifluoro-4-methylpentan-2-yl]-1-(2,4,6-trifluorophenyl)-1,4-dihydro-1,8-naphthyridine-3-carboxamide], the EC50 (M2-GIRK1/4 reporter cells) stood at 6 nM. The Emax under setting [1] worked out at 100%.
On the same counts, the results for `O=C(N[C@@H](C1CC1)C(F)(F)F)c1cn(-c2c(F)cc(F)cc2F)c2nc(N3CCC[C@H]3CO)ccc2c1=O` [Example 660, N-[(1S)-1-Cyclopropyl-2,2,2-trifluoroethyl]-7-[(2S)-2-(hydroxymethyl)pyrrolidin-1-yl]-4-oxo-1-(2,4,6-trifluorophenyl)-1,4-dihydro-1,8-naphthyridine-3-carboxamide] are 102 nM and 84.5%.
With `O=C(N[C@@H](C1CC1)C(F)(F)F)c1cn(-c2c(F)cc(F)cc2F)c2nc(N3CCC[C@@H]3CO)ccc2c1=O` [Example 661, N-[(1 S)-1-Cyclopropyl-2,2,2-trifluoroethyl]-7-[(2R)-2-(hydroxymethyl)pyrrolidin-1-yl]-4-oxo-1-(2,4,6-trifluorophenyl)-1,4-dihydro-1,8-naphthyridine-3-carboxamide], the midpoint of the response (M2-GIRK1/4 reporter cells), the EC50, lay at 48 nM. The Emax under setting [1] was 95.5%.
`O=C(N[C@@H](C1CC1)C(F)(F)F)c1cn(-c2c(F)cc(F)cc2F)c2nc(N3CC(O)C3)ccc2c1=O` [Example 662, N-[(1S)-1-Cyclopropyl-2,2,2-trifluoroethyl]-7-(3-hydroxyazetidin-1-yl)-4-oxo-1-(2,4,6-trifluorophenyl)-1,4-dihydro-1,8-naphthyridine-3-carboxamide]: for the setting “M2-GIRK1/4 reporter cells”, the response was half-maximal at 38 nM (EC50). Moreover, the Emax under setting [1] was found to be 100%.
In the case of `O=C(N[C@@H](C1CC1)C(F)(F)F)c1cn(-c2c(F)cc(F)cc2F)c2nc(N3CCC(O)(CO)CC3)ccc2c1=O` [Example 663, N-[(1 S)-1-Cyclopropyl-2,2,2-trifluoroethyl]-7-[4-hydroxy-4-(hydroxymethyl)piperidin-1-yl]-4-oxo-1-(2,4,6-trifluorophenyl)-1,4-dihydro-1,8-naphthyridine-3-carboxamide], a half-maximal response (M2-GIRK1/4 reporter cells) (EC50) required 30 nM. Also, under setting [1], the Emax turned out to be 90.5%.
